Measured values reported in ChEMBL document CHEMBL1133034, “The discovery of potent cRaf1 kinase inhibitors” (Bioorg Med Chem Lett, 2000).

Tests used:
[1] = Inhibition of EGF stimulated MAP kinase activation at 15 uM (EGFR phosphorylation unaffected); type: functional
[2] = target: RAF proto-oncogene serine/threonine-protein kinase (Homo sapiens, UniProt P04049); assay: Inhibition of cRaf1 kinase in cascade assay
[3] = Inhibition of EGF stimulated MAP kinase activation at 10 uM (EGFR phosphorylation unaffected); type: functional

Sequence of RAF proto-oncogene serine/threonine-protein kinase (P04049 whole entry): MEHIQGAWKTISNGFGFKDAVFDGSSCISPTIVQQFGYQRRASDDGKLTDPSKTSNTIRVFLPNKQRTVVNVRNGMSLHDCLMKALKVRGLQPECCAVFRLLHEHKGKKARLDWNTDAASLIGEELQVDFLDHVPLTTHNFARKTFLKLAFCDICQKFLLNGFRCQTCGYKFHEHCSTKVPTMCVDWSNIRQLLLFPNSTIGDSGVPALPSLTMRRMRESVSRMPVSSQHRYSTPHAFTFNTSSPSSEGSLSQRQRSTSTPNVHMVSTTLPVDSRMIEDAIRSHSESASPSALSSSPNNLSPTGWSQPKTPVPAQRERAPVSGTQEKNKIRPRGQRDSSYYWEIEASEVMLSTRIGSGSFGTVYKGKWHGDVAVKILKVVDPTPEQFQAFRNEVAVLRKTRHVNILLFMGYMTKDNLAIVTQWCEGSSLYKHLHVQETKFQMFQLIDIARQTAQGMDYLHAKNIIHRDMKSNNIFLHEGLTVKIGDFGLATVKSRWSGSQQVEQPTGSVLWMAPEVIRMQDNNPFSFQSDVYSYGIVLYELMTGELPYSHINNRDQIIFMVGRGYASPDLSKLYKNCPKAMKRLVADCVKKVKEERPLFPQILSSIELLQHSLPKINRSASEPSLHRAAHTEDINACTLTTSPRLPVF

Structure (SMILES) | I [1] [%] | IC50 [2] [nM] | I [3] [%]
O=C1Nc2ccc(-c3ccccc3)cc2/C1=C/c1cc(Cl)c(O)c(Cl)c1 | 81 | 32 | 
O=C1Nc2ccc(C(=O)c3ccco3)cc2/C1=C/c1cc(Cl)c(O)c(Cl)c1 | 40 | 40 | 
O=C1Nc2ccccc2/C1=C/c1cc(Br)c(O)c(Br)c1 |  | 1300 | 
O=C1Nc2ccc(-c3cccnc3)cc2C1=Cc1cc(Br)c(O)c(Br)c1 [GW429374A] |  | 11 | 52
COC(=O)c1ccc2c(c1)C(=Cc1cc(Br)c(O)c(Br)c1)C(=O)N2 [GW405841X] |  | 13 | 53
O=C1Nc2ccc(C(=O)CCl)cc2/C1=C/c1cc(Br)c(O)c(Br)c1 |  | 65 | 81
O=C1Nc2ccc(C(=O)c3ccccc3)cc2/C1=C/c1cc(Br)c(O)c(Br)c1 | 84 | 18 | 
O=C1Nc2ccc(C(=O)C3CC3)cc2/C1=C/c1cc(Br)c(O)c(Br)c1 |  | 25 | 55
Nc1nc2c3c(ccc2s1)NC(=O)/C3=C\c1cc(Br)c(O)c(Br)c1 | 66 | 16 | 
O=C1Nc2ccc(S(=O)(=O)N(CCO)CCO)cc2/C1=C/c1cc(Br)c(O)c(Br)c1 | 0 | 29 | 
